Experimental findings from PubChem BioAssay (NCI) are described below.

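96-well plates; 48 h exposure; 5 concentrations. Endpoints by linear interpolation between flanking doses. Not reached: highest tested concentration assigned. GI50 is the concentration that inhibits growth by half. TGI: total growth inhibition.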

Common to all, as to experiment: NCI anticancer screen, dose series, 48 h
Test [1] concerns MDA-MB-435.
Test [2] has as its system MCF7 breast.
Test [3] deals with MDA-N.
In test [4] the test system is HS 578T breast.

With `O=C1c2ccccc2-c2cc3ccccc3c(=O)n21`, the TGI in test [1], in test [2], in test [3] and in test [4] was > 100 µM throughout.
Turning to `Cc1ccc(NCSc2ccc(Cl)cc2)cc1`, the results for the GI50 in test [1], in test [2] and in test [4] were 9.99 µM, > 100 µM and 24.7 µM, respectively. Also, the TGI in test [1], in test [2] and in test [4] was > 100 µM each time.
Regarding `Cc1ccc(C2=Nc3c(N)ncnc3NC(c3cccc(Nc4ccnc5cc(C(F)(F)F)ccc45)c3)C2)cc1` (stereo not given), the GI50 in test [1] was 1.94 µM; in test [2], 2.41 µM; in test [4], 4.01 µM. In addition, the TGI in test [1] was 4.84 µM; in test [2], 11.5 µM; in test [4], > 100 µM.
Turning to `O=c1oc(-c2ccc(O)c(O)c2)cc2cc(O)cc(O)c12`, the GI50 in test [1] is 33 µM; in test [2], 42.7 µM; in test [4] it was 39.5 µM. In addition, the TGI in test [1] was > 100 µM; in test [2], > 100 µM; in test [4], 94.4 µM.
Regarding `O=C1OC(c2ccc(O)cc2)(c2ccc(O)cc2)c2cccc3cccc1c23`, the GI50 was 9.04 µM in test [1], 1.98 µM in test [2] and 0.249 µM in test [4]. For the same molecule, the TGI in test [1] worked out at 22.4 µM; in test [2], 25.9 µM; in test [4] it was 20.9 µM.
With `CC(CS(=O)(=O)Cc1ccccc1)C(N)=O` (stereo not given), the TGI in test [1], in test [2], in test [3] and in test [4] was > 100 µM throughout.
Regarding `COc1cc(C2C3=C(COC3=O)N(CCO)c3cc4c(cc32)CCC4)cc(OC)c1O` (stereo not given), the GI50 was 0.0646 µM in test [1], 0.107 µM in test [2] and 0.106 µM in test [4]. Further, the TGI in test [1] was 0.191 µM; in test [2], > 21.4 µM; in test [4], 11.4 µM.
Take `O=C1c2cccnc2C(=O)c2c1c(C(=O)OCCCN1CCOCC1)c1ccccn21`: in test [1], the GI50 was < 0.0118 µM and the TGI turned out to be 2.06 µM. In test [2], the GI50 is < 0.01 µM and the TGI was < 0.0116 µM.
As for `CC1(CC(=O)O)OC2CCCCCC2O1` (stereo not given) (tested in a mixture with another compound), the TGI in test [1], in test [2], in test [3] and in test [4] was > 100 µM each time.
On to `Cc1nn(-c2ccccc2)c2c1C1C(=C(c3ccc(Cl)cc3)N2)C(=O)Nc2ccccc21` (stereo not given), for which the GI50 in test [1] was 3.26 µM; in test [2], 3.16 µM; in test [4] it was 8.59 µM. Besides, the TGI was 17.2 µM in test [1], > 100 µM in test [2] and > 100 µM in test [4].
Turning to `COC(=O)c1cc(Nc2ccc(O)c3c2C(=O)c2c([N+](=O)[O-])ccc(O)c2C3=O)cc(C(=O)OC)c1`, the GI50 was 4.3 µM in test [2] and 3.77 µM in test [4]. The TGI in test [2] and in test [4] was > 100 µM each time.
For `Cc1ccc([P+](Cc2ccc([N+](=O)[O-])cc2)(c2ccc(C)cc2)c2ccc(C)cc2)cc1`, the GI50 in test [1] was 0.772 µM; in test [2] it was 2.72 µM; in test [4], 3.46 µM. Also, the TGI worked out at 3.6 µM in test [1], 12.6 µM in test [2] and 17.7 µM in test [4].
In the case of `CC[C@@]1(OC(=O)CN)C(=O)OCc2c1cc1n(c2=O)Cc2cc3cc(N)ccc3nc2-1`, the GI50 in test [1] is 0.0802 µM; in test [2] it was < 0.01 µM; in test [3], 0.0772 µM; in test [4], 1.97 µM. For the same molecule, the TGI in test [1] was 0.381 µM; in test [2], > 100 µM; in test [3], 1.09 µM; in test [4], > 100 µM.
Take `O=C(Cc1nc2ccc(C(=O)c3ccccc3)cc2[nH]c1=O)C(=O)Nc1ccccc1[N+](=O)[O-]`: the TGI in test [1], in test [2], in test [3] and in test [4] was > 100 µM in each case.
With `COc1ccc(C2=CC(c3cc(OC)c(OC)c(OC)c3)n3ncnc3N2)cc1` (stereo not given), in test [2], the GI50 was 0.0399 µM and the TGI came out at 13.7 µM. Besides, in test [4], the GI50 was 0.0734 µM and the TGI was > 100 µM.
Consider `CC[C@]12C=CCN3CC[C@]4(C(=C(C(=O)OC)C1)Nc1cc(O)ccc14)[C@@H]32`, for which the GI50 in test [1] is 3.63 µM; in test [2], 19.1 µM; in test [4], 15.5 µM. In addition, the TGI in test [1] amounted to 16.8 µM; in test [2] it was 45.5 µM; in test [4], 58.1 µM.
On to `CCCCCCCCCCCCCCCC[N+]1(CC)CCCC1`, for which, in test [4], the GI50 is 0.679 µM and the TGI amounted to 3.26 µM.
`O=C(Oc1c(I)ccccc1=O)c1ccc([N+](=O)[O-])cc1`: the TGI in test [1] stood at 42.4 µM; in test [2], 35.5 µM; in test [4], 68.2 µM.
For `O=C(N[C@@H]1CCCc2ccccc21)[C@H](CCC(=O)N1CCN(C2CCCCC2)CC1)N1C(=O)[C@@H](N2C(=O)OC[C@@H]2c2ccccc2)[C@H]1/C=C/c1ccccc1`, the values for the GI50 in test [1], in test [2] and in test [4] were 1.35 µM, 2.18 µM and 3.52 µM, respectively. Further, the TGI in test [1] was determined as 2.72 µM; in test [2], 13.4 µM; in test [4] it was 21.1 µM.
On to `O=C(OCc1ccccc1CN1CCOCC1)c1ccc(Br)cc1`, for which the figures for the TGI in test [1], in test [2] and in test [4] were 95.2 µM, > 100 µM and > 100 µM, respectively.
Take `CC1(C)N=C(N)N=C(N)N1c1ccc(OCC(=O)Nc2cccc(S(=O)(=O)F)c2)c(Cl)c1`: the TGI in test [1] was > 100 µM; in test [2], > 43.5 µM; in test [4], > 100 µM.
Turning to `COC(=O)[C@H](Cc1ccccc1)NC(=O)c1csc([C@@H](C[C@H](C(C)C)N(C)C(=O)[C@@H](NC(=O)[C@H]2CCCCN2C)C2CC2)OC(C)=O)n1`, the GI50 is 0.00884 µM in test [1], 0.0108 µM in test [2] and 0.0245 µM in test [4]. Also, the TGI in test [1] was 0.0841 µM; in test [2] it was > 25 µM; in test [4], 14.5 µM.
As to `CO[C@H]1C=C[C@]23c4cc5c(cc4CN(CC2O)[C@@H]3C1)OCO5` (stereo not given in full), the TGI worked out at 41.9 µM in test [1], 64.8 µM in test [3] and 81.9 µM in test [4].
